The values below come from patent US8859465B2, “Synergistic herbicidal composition containing penoxsulam and glufosinate-ammonium” (Dow AgroSciences LLC, priority 2011, dated 2014).

What all share (assay type): in vivo
Test [1] concerns barnyardgrass (Echinochloa crus-galli, ECHCG). The experiment in a line: Postemergence herbicidal activity of mixtures under field conditions in wet-seeded rice, ECHCG. The procedure: (§1) Evaluation of Postemergence Herbicidal Activity of Mixtures under Field Conditions Methodology
(§2) Field trials were conducted in rice using standard herbicide small plot research methodology. Plot size was 2 square meters (m^2) using 1.6 meter (m) diameter rings placed into the rice paddy soil with capability for flooding to maintain good rice cultural practices and rice growing conditions. There were 3 replicates per treatment. Rice was Japonica type that was sown as wet-seeded rice (pre-germinated) into the saturated soil in the rings as per normal cultural practices. The rice crop was grown using normal cultural practices for fertilization, seeding, watering, flooding and maintenance to ensure good growth of the crop and the weeds under seeded rice conditions in Taiwan. Ring plot water conditions were maintained under saturated soil conditions after planting. Just prior to treatment application, any remaining plot water was drained to maintain saturated soil in ring plot. Treatments were applied by backpack using compressed air at 30 pounds per square inch (psi) using Flat Fan nozzles at a spray volume of 450 Liters/hectare (L/ha). Penoxsulam was applied as the Fencer® 25OD formulation. Glufosinate-ammonium was applied as the Basta® 135 SL formulation.
(§3) All treatments in the field trials were applied by spraying the treatments on the rice and weeds and evaluated at 7, 14, or 28 days after application (DAA). Commercially available products of penoxsulam (FENCER 25OD) and glufosinate-ammonium (BASTA 135 SL) were mixed in water and sprayed onto the rice and weeds with the appropriate formulated product amounts to treat 2 m^2 to achieve the desired application rates based on unit area of application (hectare).
(§4) The treated and control plots were rated blind at various intervals after application, with the last evaluation taken 28 days after application. Ratings were based on percent (%) visual weed control, where 0 corresponds to no control and 100 corresponds to complete control.
(§5) Colby's equation was used to determine the herbicidal effects expected from the mixtures (Colby, S. R. Calculation of the synergistic and antagonistic response of herbicide combinations. Weeds 1967 15, 20-22). Results are shown where P<0.05 according to Colby's method of analysis.
(§6) The following equation was used to calculate the expected activity of mixtures containing two active ingredients, A and B: Expected=A+B−(A×B/100)
(§7) A=observed efficacy of active ingredient A at the same concentration as used in the mixture;
(§8) B=observed efficacy of active ingredient B at the same concentration as used in the mixture.

Test [2] deals with smallflower umbrella sedge (Cyperus difformis, CYPDI). The experiment in a line: Postemergence herbicidal activity of mixtures under field conditions in wet-seeded rice, CYPDI. As to conditions: 14 DAA. The procedure:
as §1, §2, §3, §4, §5, §6, §7, §8

The test system of test [3] is monochoria (Monochoria vaginalis, MOOVA). The experiment in a line: Postemergence herbicidal activity of mixtures under field conditions in wet-seeded rice, MOOVA. As to conditions: 14 DAA. As for the experimental part:
as §1, §2, §3
The treated and control plots were rated blind at various intervals after application, with the last evaluation taken 28 days after application. Ratings were based on percent (%) visual weed control, where 0 corresponds to no control and 100 corresponds to complete control. […]

Test [4] concerns Japanese bulrush (Schoenoplectus juncoides, SCPJU). Briefly: Postemergence herbicidal activity of mixtures under field conditions in wet-seeded rice, SCPJU. As for the experimental part: as §1, §2, §3, §4, §5, §6, §7, §8
Setting [5] is: 28 DAA, glufosinate-ammonium 35 grams ai/ha.
[6] abbreviates: 28 DAA, glufosinate-ammonium 70 grams ai/ha.
The mark [7] stands for this setting: 28 DAA, glufosinate-ammonium 140 grams ai/ha.
Where [8] appears, read: glufosinate-ammonium 70 grams ai/ha.
Setting [9] is: 28 DAA, penoxsulam 5 grams ai/ha.

With “2-amino-4-(hydroxymethylphosphinyl)butanoic acid [Glufosinate-ammonium]”, the “ECHCG (% Control) Obs” value is reported as 0% in test [1] (14 DAA, glufosinate-ammonium 35 grams ai/ha); 0% in test [1] (14 DAA, glufosinate-ammonium 70 grams ai/ha); 27% in test [1] (14 DAA, glufosinate-ammonium 140 grams ai/ha); 0% in test [1] (setting [5]); 0% in test [1] (setting [6]); 0% in test [1] (setting [7]). Moreover, the “ECHCG (% Control) Obs” value in test [1] (28 DAA, glufosinate-ammonium 280 grams ai/ha) amounted to 13%. In addition, the “CYPDI (% Control) Obs” value in test [2] (glufosinate-ammonium 35 grams ai/ha), in test [2] (setting [8]) and in test [2] (glufosinate-ammonium 140 grams ai/ha) was 0% in each case. The “MOOVA (% Control) Obs” value in test [3] (glufosinate-ammonium 18 grams ai/ha) and in test [3] (setting [8]) was 0% in each case. Also, the “SCPJU (% Control) Obs” value in test [4] (7 DAA, glufosinate-ammonium 18 grams ai/ha) was found to be 0%; in test [4] (7 DAA, glufosinate-ammonium 35 grams ai/ha) it was 0%; in test [4] (7 DAA, glufosinate-ammonium 70 grams ai/ha), 0%; in test [4] (7 DAA, glufosinate-ammonium 140 grams ai/ha), 0%; in test [4] (28 DAA, glufosinate-ammonium 18 grams ai/ha), 0%; in test [4] (setting [5]), 0%. For the same compound, the “SCPJU (% Control) Obs” value in test [4] (setting [6]) and in test [4] (setting [7]) was 0% each time.

In the case of `COc1cnc(OC)n2nc(NS(=O)(=O)c3c(OCC(F)F)cccc3C(F)(F)F)nc12` [Penoxsulam, 2-(2,2-difluoroethoxy)-N-(5,8-dimethoxy-[1,2,4]triazolo[1,5-c]pyrimidin-2-yl)-6-(trifluoromethyl)benzenesulfonamide], the “ECHCG (% Control) Obs” value is 53% in test [1] (14 DAA, penoxsulam 5 grams ai/ha); 62% in test [1] (14 DAA, penoxsulam 10 grams ai/ha); 30% in test [1] (setting [9]); 42% in test [1] (28 DAA, penoxsulam 10 grams ai/ha); 87% in test [1] (28 DAA, penoxsulam 20 grams ai/ha). For the same compound, the “CYPDI (% Control) Obs” value in test [2] (penoxsulam 5 grams ai/ha) is 73%. Further, the “MOOVA (% Control) Obs” value in test [3] (penoxsulam 5 grams ai/ha) is given as 37%. Moreover, the “SCPJU (% Control) Obs” value in test [4] (7 DAA, penoxsulam 5 grams ai/ha) turned out to be 40%; in test [4] (7 DAA, penoxsulam 20 grams ai/ha) it was 92%; in test [4] (setting [9]), 0%.
